Consider 17 compounds from ChEMBL document CHEMBL1144699 (Bioorg Med Chem, 2008).

Active and inactive are the calls of the source. The calls are words filed in the database; no cut-off is given here.

By IC50 is commonly meant the point on the concentration scale where inhibition reaches its midpoint. One may read the logD as the decadic logarithm of the distribution of all forms, ionised or not, between an organic phase and buffer at a given pH. As usually defined, the AUC is the area under the concentration-time curve, a measure of exposure. High values mean more exposure, low ones less exposure. A word on the clearance: it is the volume of plasma or blood freed of the substance per unit of time. Higher therefore signals efficient removal. The Cmax is the peak of the concentration-time curve. Usually bioavailability stands for the share of a dose that reaches the circulation, judged against a reference dose that is usually intravenous. The term Tmax denotes the time from dosing to the highest level.

For data set [1], the target named is Mitogen-activated protein kinase 8 (Homo sapiens, UniProt P45983). The data set is described as follows: Inhibition of human JNK1 by radiometric assay.
Mitogen-activated protein kinase 8 (Homo sapiens, UniProt P45983), sequence (P45983 whole entry): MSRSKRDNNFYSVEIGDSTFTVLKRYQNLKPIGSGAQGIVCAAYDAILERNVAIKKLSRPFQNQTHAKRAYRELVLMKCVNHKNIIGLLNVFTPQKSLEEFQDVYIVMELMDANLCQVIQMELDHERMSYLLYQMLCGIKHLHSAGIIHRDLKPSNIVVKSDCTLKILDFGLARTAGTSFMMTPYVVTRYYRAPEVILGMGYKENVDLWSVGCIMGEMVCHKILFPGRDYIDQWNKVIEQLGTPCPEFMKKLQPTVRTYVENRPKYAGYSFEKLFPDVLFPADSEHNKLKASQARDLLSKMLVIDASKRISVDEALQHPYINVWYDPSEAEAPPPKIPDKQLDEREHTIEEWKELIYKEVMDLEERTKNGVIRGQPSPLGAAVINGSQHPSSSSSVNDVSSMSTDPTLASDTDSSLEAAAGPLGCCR
Data set [2] is described as follows: Metabolic stability in human microsomes at 1 uM. The data set is classed as ADME, Microsome. Particulars: read-out: Stability.
Data set [3] is described as follows: Metabolic stability in rat microsomes at 1 uM. The data set is classed as ADME, Microsome. Conditions: read-out: Stability.
Data set [4] in a line: Lipophilicity, log D at pH 7.4. The data set is classed as physicochemical. Particulars: buffer.
In data set [5] the target is Mitogen-activated protein kinase 8 (Rattus norvegicus, UniProt P49185). As to the kind of experiment: Inhibition of JNK1 in rat H9c2 cells assessed as inhibition of anisomycin-induced cJun phosphorylation after 30 mins. Type of data set: cell-based.
Mitogen-activated protein kinase 8 (Rattus norvegicus, UniProt P49185), sequence (P49185 whole entry): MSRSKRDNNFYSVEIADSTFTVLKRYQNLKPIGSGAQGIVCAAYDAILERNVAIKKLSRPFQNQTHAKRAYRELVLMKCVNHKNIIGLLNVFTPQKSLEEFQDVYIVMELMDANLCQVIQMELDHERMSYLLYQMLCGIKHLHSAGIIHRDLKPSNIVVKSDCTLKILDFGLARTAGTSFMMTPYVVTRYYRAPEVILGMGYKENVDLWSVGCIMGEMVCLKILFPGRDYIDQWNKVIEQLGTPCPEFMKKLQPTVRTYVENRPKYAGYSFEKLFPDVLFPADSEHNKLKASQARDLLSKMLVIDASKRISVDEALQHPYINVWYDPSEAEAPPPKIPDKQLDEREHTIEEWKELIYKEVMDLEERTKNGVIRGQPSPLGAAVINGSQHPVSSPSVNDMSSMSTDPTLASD
Data set [6] is described as follows: Volume of distribution at steady state in Wistar rat at 0.3 mg/kg, iv. Particulars: in vivo, read-out: Vdss. Details: dose 0.3 mg/kg, route intravenous. Type of data set: ADME, organism-based.
The test system of data set [7] is Rattus norvegicus. As to the kind of experiment: Suppression of pressure-overload-induced cardiac hypertrophy in Wistar rat assessed as decrease in left ventricular weight to body weight ratio at 1 mg/kg, po once daily for 7 days. Particulars: Heart left ventricle. Type of data set: functional, organism-based. Details: dose 1 mg/kg.
A short description of data set [8]: AUC in Wistar rat at 3 mg/kg, po. Type of data set: ADME, organism-based. The arrangement: dose 3 mg/kg, route oral. Particulars: plasma.
Data set [9] in a line: Total clearance in Wistar rat at 0.3 mg/kg, iv. The data set is classed as ADME, organism-based. The arrangement: dose 0.3 mg/kg, route intravenous. Particulars: in vivo.
Data set [10] is described as follows: Cmax in Wistar rat at 3 mg/kg, po. The data set is classed as ADME, organism-based. The arrangement: dose 3 mg/kg, route oral. Conditions: in vivo.
The nature of data set [11]: AUC in Wistar rat at 0.3 mg/kg, iv. Type of data set: ADME, organism-based. The arrangement: dose 0.3 mg/kg, route intravenous. Conditions: plasma.
Data set [12] can be described thus: Oral bioavailability in Wistar rat at 3 mg/kg. The data set is classed as ADME, organism-based. Particulars: in vivo.
A short description of data set [13]: Tmax in Wistar rat at 3 mg/kg, po. Type of data set: ADME, organism-based. The arrangement: dose 3 mg/kg, route oral. Conditions: in vivo.

As for `CCC(=O)c1c(-c2ccccc2)c2cc(Cl)ccc2c(=O)n1Cc1cc(C(=O)N(C)C)n(C)n1`, the IC50 in data set [1] came to 11 nM. Besides, the figures for the microsomal CLint at 1 µM in data set [2] and in data set [3] were 250 µL/min/mg and 230 µL/min/mg, respectively. Moreover, the logD in data set [4] came out at 3.91.
In the case of `CCC(=O)c1c(-c2ccccc2)c2cc(Cl)ccc2c(=O)n1Cc1cc(C(N)=O)n(CC)n1`, the figures for the IC50 in data set [1] and in [5] were 11 nM and 670 nM, respectively. The microsomal CLint at 1 µM in [2] turned out to be 35 µL/min/mg; in data set [3], 110 µL/min/mg. Moreover, the logD in [4] turned out to be 4.08.
With `COC(=O)c1c(-c2ccccc2)c2cc(Br)ccc2c(=O)n1Cc1ccc(S(C)(=O)=O)cc1`, in data set [5], the IC50 turned out to be 2600 nM.
Regarding `CCC(=O)c1c(-c2ccccc2)c2cc(Cl)ccc2c(=O)n1Cc1cc(C(=O)NC)n(C)n1`, the IC50 in data set [1] amounted to 9.4 nM; in data set [5], 260 nM. The microsomal CLint at 1 µM in data set [2] was 79 µL/min/mg; in data set [3], 177 µL/min/mg. The logD in data set [4] is 3.97.
With `CCC(=O)c1c(-c2ccccc2)c2cc(Cl)ccc2c(=O)n1Cc1ccc(S(C)(=O)=O)cc1`, 28 nM corresponded to half-maximal inhibition in [1] (IC50).
Regarding `CCC(=O)c1c(-c2ccccc2)c2cc(Cl)ccc2c(=O)n1Cc1cc(C(=O)NC2CC2)n(CC(F)F)n1`, the 50% inhibitory concentration (IC50) in data set [1] was found to be 10 nM; in data set [5], 1140 nM. Besides, in [2], the microsomal CLint at 1 µM was found to be 14 µL/min/mg. The compound further had a logD in data set [4] of 4.66.
Consider `CCC(=O)c1c(-c2ccccc2)c2cc(Cl)ccc2c(=O)n1Cc1cc(C(N)=O)n(C)n1`, for which the IC50 in [1] worked out at 7.3 nM; in data set [5], 2180 nM. The values for the microsomal CLint at 1 µM in data set [2] and in data set [3] were 15 µL/min/mg and 81 µL/min/mg, respectively. Further, the pH-dependent lipophilicity (logD) in data set [4] worked out at 3.77.
For `CCC(=O)c1c(-c2ccccc2)c2cc(Cl)ccc2c(=O)n1Cc1cc(S(C)(=O)=O)n(CC(F)F)n1`, in that order: 10 nM, 480 nM, 36 µL/min/mg, 52 µL/min/mg and 4.19.
Turning to `CCC(=O)c1c(-c2ccccc2)c2cc(Cl)ccc2c(=O)n1Cc1cc(C(=O)NC2CC2)n(C)n1`, the half-inhibitory concentration (IC50) in data set [1] was determined as 6.4 nM; in data set [5], 720 nM. In addition, the Vd in [6] worked out at 3.54 L/kg. Further, the outcome in data set [7] was Active. In addition, the AUC in [8] stood at 340 ng·h/mL; in [11] it was 234 ng·h/mL. In data set [9], this compound showed a clearance of 21.4 mL/min/kg. In addition, the microsomal CLint at 1 µM in [2] worked out at 44 µL/min/mg; in data set [3], 89 µL/min/mg. In [10], the Cmax is 47.1 ng/mL. The compound further displayed a logD in data set [4] of 4.35. The bioavailability in data set [12] came out at 15%. In addition, in data set [13], the Tmax is 2 h.
In data set [1], `CCNC(=O)n1cc(Cn2c(C(=O)CC)c(-c3ccccc3)c3cc(Cl)ccc3c2=O)cn1` had an IC50 of 43 nM. Further, the figures for the microsomal CLint at 1 µM in data set [2] and in data set [3] were 43 µL/min/mg and 60 µL/min/mg, respectively. Also, the log distribution coefficient (logD) in data set [4] stood at 4.45.
In the case of `CCC(=O)c1c(-c2ccccc2)c2cc(Cl)ccc2c(=O)n1Cc1cc(S(C)(=O)=O)n(CC(C)=O)n1`, the IC50 turned out to be 7.6 nM in data set [1] and 730 nM in data set [5]. Also, the microsomal CLint at 1 µM was 70 µL/min/mg in data set [2] and 80 µL/min/mg in data set [3]. The compound further registered a log distribution coefficient (logD) in [4] of 3.79.
Take `CCC(=O)c1c(-c2ccccc2)c2cc(Cl)ccc2c(=O)n1Cc1cc(S(C)(=O)=O)n(CC(N)=O)n1`: the IC50 was determined as 8.2 nM in data set [1] and 1050 nM in [5]. Further, in data set [2], the microsomal CLint at 1 µM was 14 µL/min/mg. This compound also gave a logD in [4] of 3.42.
`CCC(=O)c1c(-c2ccccc2)c2cc(Cl)ccc2c(=O)n1Cc1cn(C(=O)NC)c(C)n1` returned an IC50 in data set [1] of 6.8 nM.
Turning to `CCC(=O)c1c(-c2ccccc2)c2cc(Cl)ccc2c(=O)n1Cc1cc(S(C)(=O)=O)n(CCC(C)(C)O)n1`, the IC50 in [1] was found to be 10 nM; in [5], 330 nM. For the same compound, the microsomal CLint at 1 µM in data set [2] is 102 µL/min/mg; in [3], 74 µL/min/mg. The same compound yielded a logD in [4] of 4.23.
Turning to `CCC(=O)c1c(-c2ccccc2)c2cc(Cl)ccc2c(=O)n1Cc1ccc(C(=O)O)cc1`, in data set [5], the IC50 stood at 2300 nM.
As to `CCNC(=O)n1ccc(Cn2c(C(=O)CC)c(-c3ccccc3)c3cc(Cl)ccc3c2=O)n1`, inhibition in [1] was half-maximal at 8.6 nM (IC50). Also, in [4], the logD turned out to be 4.51.
Take `CCC(=O)c1c(-c2ccccc2)c2cc(Cl)ccc2c(=O)n1Cc1cc(C(=O)NC)n[nH]1`: half-maximal inhibition in data set [1] (IC50) required 33 nM. For the same compound, the microsomal CLint at 1 µM in [2] amounted to 37 µL/min/mg; in data set [3], 74 µL/min/mg. The logD in data set [4] was found to be 3.5.
